According to ChEMBL document CHEMBL1671774, “An efficient synthesis of the precursor of AI-2, the signalling molecule for inter-species quorum sensing” (Bioorg Med Chem, 2011):
Activity calls are given as the source filed them. The rule behind the calls is not given here.

Assays:
[1] = tested on: Escherichia coli; assay: Induction of LsrB-dependent quorum sensing in Escherichia coli KX1446 assessed as expression of Lsr system at 40 uM by beta-galactosidase reporter assay
[2] = target: Autoinducer 2-binding periplasmic protein LuxP (Vibrio harveyi) (UniProt P54300); assay: Binding affinity to LuxP in Vibrio harveyi MM32 by FRET method
Sequence of Autoinducer 2-binding periplasmic protein LuxP (Vibrio harveyi) (P54300 whole entry): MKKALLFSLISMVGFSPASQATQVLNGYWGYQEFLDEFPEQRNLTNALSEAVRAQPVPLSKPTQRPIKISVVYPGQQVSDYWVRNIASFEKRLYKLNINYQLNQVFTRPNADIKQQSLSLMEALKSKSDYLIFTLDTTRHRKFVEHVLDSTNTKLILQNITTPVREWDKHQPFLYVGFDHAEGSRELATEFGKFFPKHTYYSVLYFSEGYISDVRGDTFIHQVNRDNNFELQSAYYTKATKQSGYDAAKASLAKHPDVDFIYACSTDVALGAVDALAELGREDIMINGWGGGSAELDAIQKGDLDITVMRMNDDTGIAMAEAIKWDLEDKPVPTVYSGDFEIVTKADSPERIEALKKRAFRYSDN

[3] = target: Autoinducer 2-binding periplasmic protein LuxP (Vibrio harveyi) (UniProt P54300); assay: Induction of LuxP-dependent quorum sensing in Vibrio harveyi MM32 assessed as induction of bioluminescence intensity after 4 hrs
[4] = tested on: Escherichia coli; assay: Ratio of compound activity over DPD activity for induction of LsrB-dependent quorum sensing in Escherichia coli KX1446

Row | Activity [1] | Activity [2] | Activity [3] | Ratio [4] | SMILES
1 | inactive | Active | Active |  | CC(=O)C(=O)[C@@H](O)CO
2 |  |  | Active |  | C[C@]12OC[C@H](O)[C@@]1(O)O[B-](O)(O)O2
3 | Active |  |  | 6 | C[C@@]1(O)OC[C@H](O)C1(O)O
